Earlier results in US20070196481A1, “Sustained-release tablet composition” (priority 2002, published 2007).
Structures can show the parent of a compound that is named as a salt.

| Compound | solubility in water |
| --- | --- |
| CCCNC1CCc2nc(N)sc2C1 (centres unmarked) [pramipexole dihydrochloride] | about 200 mg/ml |
| CCOc1ccccc1OC(c1ccccc1)C1CNCCO1 (centres unmarked) [reboxetine mesylate] | about 250 mg/ml |
